Results from paper PMC11249626, “Fluorophore-Labeled Pyrrolones Targeting the Intracellular Allosteric Binding Site of the Chemokine Receptor CCR1” (ACS Pharmacology & Translational Science, 2024).
Where two headings read alike, the source gives them in different places.

Experiments:
CCR2 = biological target: T1, CCR2 (Homo sapiens, UniProt P41597); assay: NanoBRET competition binding assay for CCR2 based on 7, as previously reported; settings: for inhibition at 20 µM: compound at 20 μM
T1 construct: host or cells: HEK293T, transient
T1 sequence (P41597 1-360 isoform P41597-2): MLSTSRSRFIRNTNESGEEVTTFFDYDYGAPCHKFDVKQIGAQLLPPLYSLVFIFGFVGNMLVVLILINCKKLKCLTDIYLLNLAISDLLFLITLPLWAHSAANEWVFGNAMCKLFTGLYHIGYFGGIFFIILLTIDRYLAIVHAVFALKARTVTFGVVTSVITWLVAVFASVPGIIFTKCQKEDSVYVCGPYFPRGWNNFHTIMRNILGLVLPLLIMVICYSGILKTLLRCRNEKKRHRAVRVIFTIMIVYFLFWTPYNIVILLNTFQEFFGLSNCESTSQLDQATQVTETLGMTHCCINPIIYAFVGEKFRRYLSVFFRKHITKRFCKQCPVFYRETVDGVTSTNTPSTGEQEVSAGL
From the text: With 6 (Figure 1), a first lead structure for intracellular CCR1 inhibition that features an approximately 20-fold CCR1 over CCR2 selectivity was previously discovered by Ortiz Zacarías et al.([33]) In order to discover new chemotypes for selective CCR1 over CCR2 inhibition, we aimed to apply our novel NanoBRET competition binding assay for CCR1 in combination with our recently published CCR2 competition binding assay based on 7.[47] In our first attempt, we screened a small in-house library enriched with intracellular GPCR ligands and structural analogues thereof. […] Additionally, we tested 23 for binding to the IABS of CCR9 and CXCR2 using our recently reported NanoBRET-based assay platform (Figure 6C).[44],[45] In the course of these studies, we detected no binding of 23 to CCR9 and CXCR2 up to a concentration of 20 μM. Since cell lineage-dependent effects have been observed for CCR1 antagonists,[59] we studied the CCR1 over CCR2 selectivity of 23 by using a previously reported radioligand binding assay with membrane preparations from osteosarcoma (U2OS) cells stably expressing human CCR1 or CCR2.[33] […] In agreement with these previous reports,[33] we observed a reduction in CCR1 over CCR2 selectivity when moving from membrane-based binding assays to cell-based functional assays. […] To investigate a potential signaling bias of 23, we tested the compound by means of a NanoBiT miniGi recruitment assay.[60] […] Thus, this indicated no strong signaling bias of 23 (Figures S9E and S10C). To elucidate the SAR of this new scaffold for selective CCR1 over CCR2 inhibition, we synthesized several analogues of 23 (24–40) and tested them by means of our NanoBRET competition binding assays (Schemes S2 and S3, Table 1, Figures 6F and S11). First, we aimed to examine the impact of the stereochemistry of 23 on CCR1 affinity. As for the structurally related pyrrolone 4, large differences in CCR2 affinity between the eutomer 4-[R] and the distomer 4-[S] were described.[61] […] Furthermore, we identified the 4-hydroxyphenethyl group at position 1 of the pyrrolone scaffold as highly important for CCR1 affinity and selectivity. Its presence seems to block CCR2 binding, also when combined with the structural features of the high-affinity CCR2 ligand 5, as exemplified by 24. Especially the 4-hydroxy group at this moiety is essential for CCR1 binding (see 25 and 26). […] In position 5 of the pyrrolone, several aromatic and aliphatic substituents were tolerated (see 31–35).

CCR1 [1] = biological target: T2, CCR1 (Homo sapiens, UniProt P32246); assay: Membrane-based NanoBRET competition assay with 12 (2000 nM) and CCR1_Nluc membranes; format: binding; parameters: Promega pNLF1-C (Nluc) #CCR010TN00; host or cells: HEK293T, transient (PEI); settings: 12 (2000 nM); for % inh. of tracer binding, CCR1 / CCR1 inhibition class (n.i.): compound at 20 μM
T2 sequence (P32246 1-355): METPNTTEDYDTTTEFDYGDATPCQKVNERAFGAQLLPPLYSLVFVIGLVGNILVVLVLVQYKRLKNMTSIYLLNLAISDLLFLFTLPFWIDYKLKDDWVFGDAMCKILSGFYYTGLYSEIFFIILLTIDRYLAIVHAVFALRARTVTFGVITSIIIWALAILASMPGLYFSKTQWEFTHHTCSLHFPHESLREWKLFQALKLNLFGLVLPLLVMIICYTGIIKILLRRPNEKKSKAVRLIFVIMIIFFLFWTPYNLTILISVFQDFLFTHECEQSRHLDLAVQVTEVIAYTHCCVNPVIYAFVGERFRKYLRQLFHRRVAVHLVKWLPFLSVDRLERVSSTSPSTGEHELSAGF

CCR1 [2] = biological target: T2, CCR1; assay: Live cell NanoBRET binding assay, HEK293T cells expressing CCR1_Nluc; parameters: Promega pNLF1-C (Nluc) #CCR010TN00; host or cells: HEK293T, transient (PEI); settings: 12 (1000 nM), live HEK293T cells
[3] = CCR1_Nluc membranes, read-out: Ki, CCR1 (converted)
[4] = read-out: CCR2 inhibition class (n.i.)
[5] = CCR1_Nluc membranes, read-out: pKi ± SEM, CCR1 (converted)
[6] = read-out: % inh. of tracer binding, CCR2
[7] = CCR1_Nluc membranes, read-out: Ki, CCR1 (Figure 5B)

Row | Ki (CCR1 [1]; [3]) [nM] | inhibition at 20 µM (CCR2; [4]) [%] | Ki (CCR1 [1]; [5]) [nM] | Molecule | further results
1 | 224 |  |  | O=C(C1=C(O)C(=O)N(c2ccc(Br)cc2F)C1c1ccc(F)cc1)c1ccccc1 (centres unmarked) [compound 40] | Ki (CCR2; NanoBRET competition, tracer 7): 7830 nM
2 |  | < 10 |  | O=C(C1=C(O)C(=O)N(c2ccc(O)cc2)C1c1ccc(F)cc1)c1ccccc1 (centres unmarked) [compound 30] | % inh. of tracer binding, CCR1 (CCR1 [1]): 32% @ 20 μM
3 | 195 | < 10 | 178 | O=C(C1=C(O)C(=O)N(CCc2ccc(O)cc2)C1c1cccc(Br)c1)c1ccccc1 (centres unmarked) [compound 32] | 
4 | 189 |  | 182 | O=C(C1=C(O)C(=O)N(CCc2ccc(O)cc2)C1c1ccc(Br)cc1)c1ccccc1 (centres unmarked) [compound 31] | inhibition at 20 µM (CCR2; [6]): 19%
5 | 291 |  |  | O=C(C1=C(O)C(=O)N(CCc2ccccc2O)C1c1ccc(F)cc1)c1ccccc1 (centres unmarked) [compound 28] | inhibition at 20 µM (CCR2; [6]): 49%
6 |  | < 10 |  | O=C(C1=C(O)C(=O)N(CCc2ccc(O)cc2)C1c1ccc(F)cc1)C1CC1 (centres unmarked) [compound 36] | % inh. of tracer binding, CCR1 (CCR1 [1]): 25% @ 20 μM
7 |  | < 10 |  | O=C(C1=C(O)C(=O)N(CCc2ccc(O)cc2)C1c1ccc(F)cc1)c1cccc(O)c1 (centres unmarked) [compound 39] | % inh. of tracer binding, CCR1 (CCR1 [1]): 38% @ 20 μM
8 | 130 |  | 120 | O=C(C1=C(O)C(=O)N(Cc2ccc(O)cc2)C1c1ccc(F)cc1)c1ccccc1 (centres unmarked) [compound 29] | inhibition at 20 µM (CCR2; [6]): 42%
9 | 200 |  | 191 | O=C(C1=C(O)C(=O)N(CCc2ccc(O)cc2)C1c1ccc(Cl)cc1)c1ccccc1 (centres unmarked) [compound 33] | inhibition at 20 µM (CCR2; [6]): 18%
10 | 231 |  | 219 | O=C(C1=C(O)C(=O)N(CCc2ccc(O)cc2)C1C1CCCCC1)c1ccccc1 (centres unmarked) [compound 34] | inhibition at 20 µM (CCR2; [6]): 37%
11 |  | < 10 |  | O=C(C1=C(O)C(=O)N(CCc2ccc(O)cc2)C1c1cccc(Br)c1)C1CC1 (centres unmarked) [compound 37] | CCR1 inhibition class (n.i.) (CCR1 [1]): n.i. (no inhibition (percentual inhibition at 20 μM < 10%))
12 | 279 | < 10 | 257 | O=C(C1=C(O)C(=O)N(CCc2ccc(O)cc2)C1c1ccccc1)c1ccccc1 (centres unmarked) [compound 35] | 

More lines, now with the values behind:

Row | Molecule | Ki (CCR1 [1]; [3]) [nM] | inhibition at 20 µM (CCR2; [4]) [%] | Ki (CCR1 [1]; [5]) [nM] | further results
13 | CS(=O)(=O)c1cc(C2(NC(=O)c3cncc4c3cnn4-c3ccc(F)cc3)CC2)ccn1 [compound 3, reference compound] |  |  |  | Enhancement of CCR1 binding of 12 (CCR1 [1]; CCR1_Nluc membranes): ~150%
14 | CC(C)(C)c1ccc(S(=O)(=O)Nc2ccc(Cl)cc2-c2cncnc2N)cc1 [compound 22, reference compound] |  |  | 2630 | Ki (CCR1 [1]; [7]): 2950 nM
15 | O=C(C1=C(O)C(=O)N(CCc2ccc(O)cc2)C1c1ccc(F)cc1)c1ccccc1 (single isomer, unassigned; (+)) [(+)-23] | 65.7 | < 10 |  | 
16 | Cc1ccc(S(=O)(=O)Nc2ccc(Cl)cc2C(=O)c2ccccc2)cc1 [compound 42] |  |  |  | % inh. of tracer binding, CCR1 (CCR1 [1]): ≥ 50%
17 | O=C(C1=C(O)C(=O)N(CCc2ccc(F)cc2)C1c1ccc(F)cc1)c1ccccc1 (centres unmarked) [compound 26] | 952 | < 10 | 871 | 
18 | COCc1cn(CCCC(=O)C2=C(O)C(=O)N(c3ccc(Br)cc3F)C2C2CCCCC2)nn1 (centres unmarked) [compound 10] | 97.6 |  |  | 
19 | CC(C)(C)c1ccc(S(=O)(=O)Nc2ccc(Cl)cc2C(=O)c2cc[n+]([O-])cc2)cc1 [compound 21, reference compound] |  |  | 2950 | Ki (CCR1 [1]; [7]): 3130 nM
20 | O=C(C1=C(O)C(=O)N(CCc2ccc(O)cc2)C1c1ccc(F)cc1)c1ccc(O)cc1 (centres unmarked) [compound 38] |  |  |  | inhibition at 20 µM (CCR2; [6]): 19%; % inh. of tracer binding, CCR1 (CCR1 [1]): 42% @ 20 μM
21 | CCL7: orthosteric CCR1 agonist chemokine, also referred to as MCP-3 |  |  |  | Competition with 12 at CCR1 (CCR1 [1]; CCR1_Nluc membranes): no competition
22 | O=C(C1=C(O)C(=O)N(CCc2ccccc2)C1c1ccc(F)cc1)c1ccccc1 (centres unmarked) [compound 25] | 997 | < 10 | 955 | 
23 | CC(=O)C1=C(O)C(=O)N(c2ccc(Br)cc2)C1c1ccccc1[N+](=O)[O-] (centres unmarked) [compound 41] |  |  |  | % inh. of tracer binding, CCR1 (CCR1 [1]): ≥ 50%
24 | O=C(O)c1ccc(Oc2ncc(Cl)cc2NS(=O)(=O)c2ccc(Cl)c(C(F)(F)F)c2)cc1 [compound 19, reference compound] | 354 |  |  | Ki (CCR1 [1]; [7]): 350 nM
25 | CC(C)C[C@H](CO)Nc1nc(S[C@@H](C)c2ccccc2)nc2nc(N)sc12 [compound 18, reference compound] | 75.6 |  | 72.4 | Ki (CCR1 [2]; read-out: Ki, live cells): 98.3 nM; Ki (CCR1 [2]; read-out: pKi ± SEM, live cells (converted)): 93.3 nM
26 | O=C(C1=C(O)C(=O)N(CCc2cccc(O)c2)C1c1ccc(F)cc1)c1ccccc1 (centres unmarked) [compound 27] | 184 | < 10 | 178 | 
27 | O=C(C1=C(O)C(=O)N(CCc2ccc(O)cc2)C1c1ccc(F)cc1)c1ccccc1 (single isomer, unassigned; (-)) [(-)-23] | 216 |  | 209 | inhibition at 20 µM (CCR2; [6]): 27%
28 | CC(=O)C1=C(O)C(=O)N(CCc2ccc(O)cc2)C1C1CCCCC1 (centres unmarked) [compound 24] |  |  |  | inhibition at 20 µM (CCR2; [6]): 10%; CCR1 inhibition class (n.i.) (CCR1 [1]): n.i. (no inhibition (percentual inhibition at 20 μM < 10%))
29 | CC[C@@H](Nc1c(Nc2cccc(C(=O)N(C)C)c2O)c(=O)c1=O)c1ccc(C)o1 [compound 20, reference compound] |  |  | 2240 | Ki (CCR1 [1]; [7]): 2340 nM
